Columns and labels:
Assay in all cases: cells
COLO-829 = assay type: functional, cell-based, Homo sapiens
Description: SANGER: Inhibition of human COLO-829 cell growth in a cell viability assay.

COR-L88 = assay type: functional, cell-based, Homo sapiens;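 further: growth inhibition of COR-L88 cells, read out with a cell viability assay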
Description: SANGER: Inhibition of human COR-L88 cell growth in a cell viability assay.

DB = assay type: functional, cell-based, Homo sapiens
Description: SANGER: Inhibition of human DB cell growth in a cell viability assay.

DOHH-2 = assay type: functional, cell-based, Homo sapiens;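 further: growth inhibition of human DOHH-2 cells, read out with a cell viability assay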
Description: SANGER: Inhibition of human DOHH-2 cell growth in a cell viability assay.

EM-2 = assay type: functional, cell-based, Homo sapiens;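 further: growth inhibition of EM-2 cells, read out with a cell viability assay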
Description: SANGER: Inhibition of human EM-2 cell growth in a cell viability assay.

ES1 = assay type: functional, cell-based, Homo sapiens;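 further: growth inhibition of ES1 cells, read out with a cell viability assay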
Description: SANGER: Inhibition of human ES1 cell growth in a cell viability assay.

EW-24 = assay type: functional, cell-based, Homo sapiens;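 further: human EW-24 cancer cell line, growth inhibition read out via a cell viability assay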
Description: SANGER: Inhibition of human EW-24 cell growth in a cell viability assay.

GI-ME-N = assay type: functional, cell-based, Homo sapiens;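 further: growth inhibition of human GI-ME-N cells, read out with a cell viability assay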
Description: SANGER: Inhibition of human GI-ME-N cell growth in a cell viability assay.

HH = assay type: functional, cell-based, Homo sapiens
Description: SANGER: Inhibition of human HH cell growth in a cell viability assay.

HuTu80 = assay type: functional, cell-based, Homo sapiens, HUTU-80;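 further: growth inhibition of HuTu80 human cells, determined with a cell viability readout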
Description: SANGER: Inhibition of human HUTU-80 cell growth in a cell viability assay.

J-RT3-T3-5 = assay type: functional, cell-based, Homo sapiens;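 further: cell viability assay measuring growth inhibition of human J-RT3-T3-5 cells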
Description: SANGER: Inhibition of human J-RT3-T3-5 cell growth in a cell viability assay.

JVM-2 = assay type: functional, cell-based, Homo sapiens;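 further: growth inhibition of JVM-2 cells determined by a cell viability assay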
Description: SANGER: Inhibition of human JVM-2 cell growth in a cell viability assay.

K562 = assay type: functional, cell-based, Homo sapiens
Description: SANGER: Inhibition of human K-562 cell growth in a cell viability assay.

K5 = assay type: functional, cell-based, Homo sapiens
Description: SANGER: Inhibition of human K5 cell growth in a cell viability assay.

KALS-1 = assay type: functional, cell-based, Homo sapiens;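 further: growth inhibition of KALS-1 cells, determined with a cell viability assay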
Description: SANGER: Inhibition of human KALS-1 cell growth in a cell viability assay.

KE-37 = assay type: functional, cell-based, Homo sapiens;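 further: growth inhibition of KE-37 cells, read out with a cell viability assay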
Description: SANGER: Inhibition of human KE-37 cell growth in a cell viability assay.

KNS-42 = assay type: functional, cell-based, Homo sapiens;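 further: growth inhibition of KNS-42 cells, read out with a cell viability assay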
Description: SANGER: Inhibition of human KNS-42 cell growth in a cell viability assay.

KURAMOCHI = assay type: functional, cell-based, Homo sapiens;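 further: growth inhibition of KURAMOCHI cells, read out with a cell viability assay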
Description: SANGER: Inhibition of human KURAMOCHI cell growth in a cell viability assay.

LS-123 = assay type: functional, cell-based, Homo sapiens
Description: SANGER: Inhibition of human LS-123 cell growth in a cell viability assay.

ML-2 = assay type: functional, cell-based, Homo sapiens;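 further: growth inhibition of ML-2 cells, measured with a cell viability readout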
Description: SANGER: Inhibition of human ML-2 cell growth in a cell viability assay.

MV4-11 = assay type: functional, cell-based, Homo sapiens, MV-4-11;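 further: cell viability readout measuring growth inhibition of human MV-4-11 cells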
Description: SANGER: Inhibition of human MV-4-11 cell growth in a cell viability assay.

NB5 = assay type: functional, cell-based, Homo sapiens;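 further: growth inhibition of NB5 cells, read out as cell viability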
Description: SANGER: Inhibition of human NB5 cell growth in a cell viability assay.

NCI-H1355 = assay type: functional, cell-based, Homo sapiens;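 further: growth inhibition of human NCI-H1355 cells, read out by a cell viability assay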
Description: SANGER: Inhibition of human NCI-H1355 cell growth in a cell viability assay.

NCI-H1395 = assay type: functional, cell-based, Homo sapiens;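 further: cell viability assay read-out quantifying reduced proliferation of human NCI-H1395 cells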
Description: SANGER: Inhibition of human NCI-H1395 cell growth in a cell viability assay.

NCI-H23 = assay type: functional, cell-based, Homo sapiens;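 further: cell viability assay measuring growth inhibition of NCI-H23 cells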
Description: SANGER: Inhibition of human NCI-H23 cell growth in a cell viability assay.

NCI-N87 = assay type: functional, cell-based, Homo sapiens;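 further: growth inhibition of human NCI-N87 cells, read out with a cell viability assay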
Description: SANGER: Inhibition of human NCI-N87 cell growth in a cell viability assay.

NOMO-1 = assay type: functional, cell-based, Homo sapiens;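 further: growth inhibition of human NOMO-1 cells measured by a cell viability assay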
Description: SANGER: Inhibition of human NOMO-1 cell growth in a cell viability assay.

NTERA-2-cl-D1 = assay type: functional, cell-based, Homo sapiens;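 further: inhibition of cell growth, measured with a cell viability assay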
Description: SANGER: Inhibition of human NTERA-S-cl-D1 cell growth in a cell viability assay.

OCUB-M = assay type: functional, cell-based, Homo sapiens;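 further: growth inhibition of the cancer cell line, read out through a cell viability assay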
Description: SANGER: Inhibition of human OCUB-M cell growth in a cell viability assay.

ONS-76 = assay type: functional, cell-based, Homo sapiens;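 further: growth inhibition of human ONS-76 cells, read out with a cell viability assay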
Description: SANGER: Inhibition of human ONS-76 cell growth in a cell viability assay.

RH-1 = assay type: functional, cell-based, Homo sapiens;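 further: growth inhibition of human RH-1 cells, read out with a cell viability assay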
Description: SANGER: Inhibition of human RH-1 cell growth in a cell viability assay.

RPMI-8226 = assay type: functional, cell-based, Homo sapiens
Description: SANGER: Inhibition of human RPMI-8226 cell growth in a cell viability assay.

RPMI-8866 = assay type: functional, cell-based, Homo sapiens
Description: SANGER: Inhibition of human RPMI-8866 cell growth in a cell viability assay.

SK-MEL-1 = assay type: functional, cell-based, Homo sapiens;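 further: growth inhibition of human SK-MEL-1 cells, read out by a cell viability assay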
Description: SANGER: Inhibition of human SK-MEL-1 cell growth in a cell viability assay.

SK-UT-1 = assay type: functional, cell-based, Homo sapiens;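 further: growth inhibition of SK-UT-1 cells, measured by a cell viability assay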
Description: SANGER: Inhibition of human SK-UT-1 cell growth in a cell viability assay.

SW684 = assay type: functional, cell-based, Homo sapiens;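 further: growth inhibition of human SW684 cells, measured by a cell viability assay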
Description: SANGER: Inhibition of human SW684 cell growth in a cell viability assay.

SW 954 = assay type: functional, cell-based, Homo sapiens;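 further: growth inhibition of SW954 human cancer cells, read out as cell viability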
Description: SANGER: Inhibition of human SW954 cell growth in a cell viability assay.

A101D = assay type: functional, cell-based, Homo sapiens;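 further: growth inhibition of the cell line, measured with a viability assay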
Description: SANGER: Inhibition of human A101D cell growth in a cell viability assay.

AM-38 = assay type: functional, cell-based, Homo sapiens;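 further: growth inhibition of AM-38 cells of human origin, read out by a cell viability assay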
Description: SANGER: Inhibition of human AM-38 cell growth in a cell viability assay.

BB49-HNC = assay type: functional, cell-based, Homo sapiens;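 further: cell viability assay read-out, reported as inhibition of BB49-HNC cell growth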
Description: SANGER: Inhibition of human BB49-HNC cell growth in a cell viability assay.

C2BBe1 = assay type: functional, cell-based, Homo sapiens;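 further: growth inhibition of C2BBe1 cells, read out through a viability assay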
Description: SANGER: Inhibition of human C2BBe1 cell growth in a cell viability assay.

TE-10 = assay type: functional, cell-based, Homo sapiens;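 further: growth inhibition of TE-10 cells, measured by a cell viability assay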
Description: SANGER: Inhibition of human TE-10 cell growth in a cell viability assay.

TE-12 = assay type: functional, cell-based, Homo sapiens;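 further: growth inhibition of TE-12 cells, read out by a cell viability assay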
Description: SANGER: Inhibition of human TE-12 cell growth in a cell viability assay.

TE-9 = assay type: functional, cell-based, Homo sapiens;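 further: cell growth inhibition, measured with a cell viability readout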
Description: SANGER: Inhibition of human TE-9 cell growth in a cell viability assay.

CGTH-W-1 = assay type: functional, cell-based, Homo sapiens;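 further: growth inhibition of human CGTH-W-1 cells measured by cell viability assay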
Description: SANGER: Inhibition of human CGTH-W-1 cell growth in a cell viability assay.

COLO-668 = assay type: functional, cell-based, Homo sapiens
Description: SANGER: Inhibition of human COLO-668 cell growth in a cell viability assay.

COLO-684 = assay type: functional, cell-based, Homo sapiens
Description: SANGER: Inhibition of human COLO-684 cell growth in a cell viability assay.

In the case of `COc1cccc2c1C(=O)c1c(O)c3c(c(O)c1C2=O)C[C@@](O)(C(=O)CO)C[C@@H]3O[C@H]1C[C@H](N)[C@H](O)[C@H](C)O1` [DOXORUBICIN], the IC50 (COLO-829; Homo sapiens, COLO-829) is reported as over 1.02 µM, the IC50 (COR-L88; Homo sapiens, COR-L88) is reported as over 1.02 µM and the IC50 (DB; Homo sapiens, DB) is reported as 0.162 µM. For the same compound, the IC50 (DOHH-2; Homo sapiens, DOHH-2) was 0.02 µM, the IC50 (EM-2; Homo sapiens, EM-2) was 0.325 µM and the IC50 (ES1; Homo sapiens, ES1) was 0.0137 µM. For the same compound, the IC50 (EW-24; Homo sapiens, EW-24) was 0.97 µM, the IC50 (GI-ME-N; Homo sapiens, GI-ME-N) was 0.0933 µM and the IC50 (HH; Homo sapiens, HH) was 0.241 µM. It also gave an IC50 (HuTu80; Homo sapiens, HuTu80) of 0.00212 µM, an IC50 (J-RT3-T3-5; Homo sapiens, J-RT3-T3-5) of 0.0963 µM and an IC50 (JVM-2; Homo sapiens, JVM-2) of 0.242 µM. It also gave an IC50 (K562; Homo sapiens, K562) of 0.386 µM, an IC50 (K5; Homo sapiens, K5) of 0.0969 µM and an IC50 (KALS-1; Homo sapiens, KALS-1) of 0.0293 µM. The IC50 (KE-37; Homo sapiens, KE-37) was 0.021 µM, the IC50 (KNS-42; Homo sapiens, KNS-42) was 0.243 µM and the IC50 (KURAMOCHI; Homo sapiens, KURAMOCHI) was 0.127 µM. It also gave an IC50 (LS-123; Homo sapiens, LS-123) of 0.0185 µM, an IC50 (ML-2; Homo sapiens, ML-2) of 0.135 µM and an IC50 (MV4-11; Homo sapiens, MV4-11) of 0.01 µM. It also gave an IC50 (NB5; Homo sapiens, NB5) of 0.36 µM, an IC50 (NCI-H1355; Homo sapiens, NCI-H1355) of 0.152 µM and an IC50 (NCI-H1395; Homo sapiens, NCI-H1395) of over 1.02 µM. The IC50 (NCI-H23; Homo sapiens, NCI-H23) was 0.284 µM, the IC50 (NCI-N87; Homo sapiens, NCI-N87) was 0.48 µM and the IC50 (NOMO-1; Homo sapiens, NOMO-1) was 0.224 µM. For the same compound, the IC50 (NTERA-2-cl-D1; Homo sapiens, NTERA-2-cl-D1) was 0.00137 µM, the IC50 (OCUB-M; Homo sapiens, OCUB-M) was 0.0152 µM and the IC50 (ONS-76; Homo sapiens, ONS-76) was 0.0189 µM. The IC50 (RH-1; Homo sapiens, RH-1) was 0.00673 µM, the IC50 (RPMI-8226; Homo sapiens, RPMI-8226) was 0.213 µM and the IC50 (RPMI-8866; Homo sapiens, RPMI-8866) was 0.192 µM. It also gave an IC50 (SK-MEL-1; Homo sapiens, SK-MEL-1) of over 1.02 µM, an IC50 (SK-UT-1; Homo sapiens, SK-UT-1) of 0.02 µM and an IC50 (SW684; Homo sapiens, SW684) of over 1.02 µM. For the same compound, the IC50 (SW 954; Homo sapiens, SW 954) was 0.0169 µM, the IC50 (A101D; Homo sapiens, A101D) was 0.0515 µM and the IC50 (AM-38; Homo sapiens, AM-38) was 0.282 µM. For the same compound, the IC50 (BB49-HNC; Homo sapiens, BB49-HNC) was over 1.02 µM, the IC50 (C2BBe1; Homo sapiens, C2BBe1) was over 1.02 µM and the IC50 (TE-10; Homo sapiens, TE-10) was 0.113 µM. The IC50 (TE-12; Homo sapiens, TE-12) was 0.0811 µM, the IC50 (TE-9; Homo sapiens, TE-9) was 0.257 µM and the IC50 (CGTH-W-1; Homo sapiens, CGTH-W-1) was 0.0535 µM. It also gave an IC50 (COLO-668; Homo sapiens, COLO-668) of 84.5 nM and an IC50 (COLO-684; Homo sapiens, COLO-684) of 0.22 µM.

With BLEOMYCIN the IC50 (COLO-829; colo-829) was 37 µM, the IC50 (COR-L88; cor-l88) was 73.4 µM and the IC50 (DB; db) was 5.12 µM. The IC50 (DOHH-2; dohh-2) was 5.29 µM, the IC50 (EM-2; em-2) was 84.8 µM and the IC50 (ES1; es1) was 0.0267 µM. It also gave an IC50 (EW-24; ew-24) of 95.3 µM, an IC50 (GI-ME-N; gi-me-n) of 0.441 µM and an IC50 (HH; hh) of 2.29 µM. The IC50 (HuTu80; hutu-80) was 0.000136 µM, the IC50 (J-RT3-T3-5; j-rt3-t3-5) was 0.712 µM and the IC50 (JVM-2; jvm-2) was 0.572 µM. The IC50 (K562; k562) was 126 µM, the IC50 (K5; k5) was 72.4 µM and the IC50 (KALS-1; kals-1) was 11.7 µM. The IC50 (KE-37; ke-37) was 25.9 µM, the IC50 (KNS-42; kns-42) was 693 µM and the IC50 (KURAMOCHI; kuramochi) was 2.04 µM. For the same compound, the IC50 (LS-123; ls-123) was 23.4 µM, the IC50 (ML-2; ml-2) was 0.132 µM and the IC50 (MV4-11; mv-4-11) was 0.00991 µM. For the same compound, the IC50 (NB5; nb5) was 6.72 µM, the IC50 (NCI-H1355; nci-h1355) was 8.2 µM and the IC50 (NCI-H1395; nci-h1395) was 384 µM. The IC50 (NCI-H23; nci-h23) was 2.47 µM, the IC50 (NCI-N87; nci-n87) was 2.96 µM and the IC50 (NOMO-1; nomo-1) was 4.2 µM. The IC50 (NTERA-2-cl-D1; ntera-2-cl-d1) was 0.000139 µM, the IC50 (OCUB-M; ocub-m) was 1.81 µM and the IC50 (ONS-76; ons-76) was 0.854 µM. It also gave an IC50 (RH-1; rh-1) of 0.152 µM, an IC50 (RPMI-8226; rpmi-8226) of 906 µM and an IC50 (RPMI-8866; rpmi-8866) of 7.91 µM. It also gave an IC50 (SK-MEL-1; sk-mel-1) of 260 µM, an IC50 (SK-UT-1; sk-ut-1) of 0.00629 µM and an IC50 (SW684; sw684) of 3870 µM. It also gave an IC50 (SW 954; sw 954) of 0.00957 µM, an IC50 (A101D; a101d) of 0.62 µM and an IC50 (AM-38; am-38) of 4.94 µM. It also gave an IC50 (BB49-HNC; bb49-hnc) of 38.8 µM, an IC50 (C2BBe1; c2bbe1) of 91.8 µM and an IC50 (TE-10; te-10) of 0.783 µM. For the same compound, the IC50 (TE-12; te-12) was 0.719 µM, the IC50 (TE-9; te-9) was 34 µM and the IC50 (CGTH-W-1; cgth-w-1) was 4.3 µM. The IC50 (COLO-668; colo-668) was 0.0218 nM and the IC50 (COLO-684; colo-684) was 237 µM.

— ChEMBL document CHEMBL1201861, “Genomics of Drug Sensitity in Cancer screening data, Wellcome Trust Sanger Institute”
